Results on eight compounds are retold here after patent US12383624B2, “Cargo delivery system and composition comprising the same” (SEOUL NATIONAL UNIVERSITY R&DB FOUNDATION, priority 2018, dated 2025).

Molecules are shown by their SMILES.

The test system of one assay is Tau. Kind of assay: target protein degradation by immunoblotting (Experimental Example 6). In kind it is cell-based, human. Particulars: 24 hours. As to the method:
(§1) In order to evaluate the target proteion degradation efficacy by Examples 14 to 33 according the disclosure, the following experiment was conducted.
(§2) First, as cell lines primarily expressing the target protein, Human kidney-derived cancer cells, HEK293T (ATCC, CRL-3216), human prostate-derived cancer cells, LNcap (Korean Cell Line Bank, Korean Cell Line Research Foundation, KCLB No. 80018), mouse embryonic fibroblast, MEF (ATCC, SCRC-1008), human cervical cancer cells, HeLa (Korean Cell Line Bank, Korean Cell Line Research Foundation, KCLB No. 10002), human blood-derived cells, K562 (Korean Cell Line Bank, Korean Cell Line Research Foundation, KCLB No. 10243), human blood-derived cells, THP-1 (Korean Cell Line Bank, Korean Cell Line Research Foundation, KCLB No. 40202), human lung-derived cancer cells, A549 (Korean Cell Line Bank, Korean Cell Line Research Foundation, KCLB No. 10185), human breast-derived cancer cells, MCF7 (Korean Cell Line Bank, Korean Cell Line Research Foundation, KCLB No. 30022), human neuroblastoma, SH-SY5Y cell lines (Korean Cell Line Bank, Korean Cell Line Research Foundation, KCLB No. 22266), human pancreatic cancer cells, PANC-1 (Korean Cell Line Bank, Korean Cell Line Research Foundation, KCLB No. 21469) were cultured, respectively, in an incubator maintained at 5% carbon dioxide, using DMEM containing 10% FBS and 1% streptomycin/penicillin, RPMI1640, or MEM medium, and then the respective cells were dispensed in 12-well plate. Additional incubation was performed for 24 hours to ensure that each cell completely fixed to the surface of the plate.
(§3) In order to confirm whether Compounds A to W of Examples 14 to 33 degrade the target protein respectively, the cultured cells were treated with the compound of each example for 24 hours and then collected.
(§4) In this case, HEK293T, which is human kidney-derived cancer cells, LNcap, which is human prostate-derived cancer cells, and MEF cell line, which is mouse embryonic fibroblasts, were treated with Example 14 (Compound A). HEK293T, which is human kidney-derived cancer cells, was treated with Example 15 (Compound B). HEK293T cell line, which is human kidney-derived cancer cells, and HeLa cell line, which is cervical-derived cancer cells, were treated with Example 16 (Compound C). HEK293T cell line, which is human kidney-derived cancer cells, was treated with Example 17 (Compound D). K562 cell line, which is human blood-derived cells, was treated with Example 18 (Compound E). HEK293T cell line, which is human kidney-derived cancer cells, was treated with Example 19 (Compound F). THP-1 cell line, which is human blood-derived cells, was treated with Example 20 (Compound G). A549 cell line, which is human lung-derived cancer cells, was treated with Example 21 (Compound H). A549 cell line, which is human lung-derived cancer cells, was treated with Example 22 (Compound I). MCF7 cell line, which is human breast-derived cancer cells, was treated with Example 23 (Compound J). HEK293T cell line, which is […], was treated with Example 24 (Compound L). SH-SY5Y, which is human neuroblastoma, and HeLa cell line, which is cervical-derived cancer cells, were treated with Example 25 (Compound M). THP-1 cell line, which is human blood-derived cells, was treated with Example 26 (Compound P). SH-SY5Y, which is human neuroblastoma, and HeLa cell line, which is cervical-derived cancer cells, were treated with Example 27 (Compound Q). SH-SY5Y, which is human neuroblastoma, and HeLa cell line, which is cervical-derived cancer cells, were treated with Example 28 (Compound R). HeLa cell line, a human cervical-derived cancer cell, was treated with Example 29 (Compound S). SH-SY5Y cell line, which is human neuroblastoma, was treated with Example 30 (Compound T). SH-SY5Y cell line, which is human neuroblastoma, was treated with Example 31 (Compound U). PANC-1 cell line, which is human pancreatic-derived cancer cells, was treated with Example 32 (Compound V). […]
A general note: A western blot detects proteins with antibodies after separation by electrophoresis.

For another assay, the target named is T1, Desmin Mut(L385P) (Homo sapiens, UniProt P17661, L385P).
T1 construct: expressed in transfected cells; host or cells: HeLa (Compound S); SH-SY5Y or HeLa (Compounds M, Q, R)
The description is as above. In kind it is cell-based. Conditions: SH-SY5Y and HeLa cell lines treated, 24 hours. As to the method:
as §1, §2, §3, §4

The target in the next assay is T2, α-synuclein(A53T) (Homo sapiens, UniProt P37840, A53T).
T2 construct: expressed in transfected cells; host or cells: SH-SY5Y (Compound U); SH-SY5Y or HeLa (Compound M)
Described as above. In kind it is cell-based. Particulars: 24 hours. The procedure:
as §1, §2, §3, §4

For the next assay, the target named is T3, p-53 (Homo sapiens, UniProt P04637, R273H).
T3 construct: endogenous in cells; host or cells: PANC-1
Described as above. Type of assay: cell-based. Particulars: PANC-1 cell line, 24 hours. As to the method: as §1, §2, §3, §4

A further assay relates to BRD2. The description is as above. Particulars: HEK293T, LNcap and MEF cell lines, 24 hours. In kind it is cell-based, human, mouse. As to the method:
as §1, §2, §3
(§5) In this case, HEK293T, which is human kidney-derived cancer cells, LNcap, which is human prostate-derived cancer cells, and MEF cell line, which is mouse embryonic fibroblasts, were treated with Example 14 (Compound A). […]

The next assay has as its system BRD3. Described as above. In kind it is cell-based, human, mouse. Conditions: HEK293T, LNcap and MEF cell lines, 24 hours. As to the method:
as §1, §2, §3, §5

Another assay relates to BRD4. Described as above. Type of assay: cell-based, human, mouse. Conditions: HEK293T, LNcap and MEF cell lines, 24 hours. The procedure:
as §1, §2, §3, §5

In another assay the test system is Cyclin D1. The description is as above. Type of assay: cell-based, human. Conditions: A549 cell line, 24 hours. As to the method:
as §1, §2, §3, §4

The target in a further assay is T4, STAT3 (Homo sapiens, UniProt P40763).
T4 construct: as cell lines primarily expressing the target protein; endogenous in cells; host or cells: A549
Described as above. Particulars: A549 cell line, 24 hours. Type of assay: cell-based. The procedure:
as §1, §2, §3, §4

Another assay deals with T5, p-STAT3 (Homo sapiens, UniProt P40763).
T5 construct: endogenous in cells; host or cells: A549
Described as above. Type of assay: cell-based. Particulars: A549 cell line, 24 hours. The procedure: as §1, §2, §3, §4

In assay [1] the test system is p62 and each target protein. Kind of assay: p62-mediated delivery of target proteins to autophagy by immunofluorescence staining and confocal microscopy. Conditions: cells cultured 24 hours with compound. In kind it is cell-based. The procedure: In order to confirm the efficacy of P62-mediated delivery of target proteins to autophagy after treatment with the example compounds of the disclosure, immunofluorescence staining was performed by using p62 and each target protein as markers. The cover glass was placed on a 24-well plate for immunofluorescence staining, cell lines primarily expressing the target protein or gene recombinant cell lines were cultured. The cells were dispensed and cultured 24 hours, and then treated with Example 1 (ATCRET-1104), Example 5 (Anle138b F105), Example 7 (Vinclozolin 2204), Example 8 (PHTPP 1304), Example 9 (Baicalein 2204), Example 10 (Resveratrol 1105), Example Example 11 (BTA-1 1104), Example 30 (Compound T) according to the disclosure, respectively. The cells were further cultured for 24 hours for the action of the compounds, the medium was removed, and the cells were fixed using formaldehyde at room temperature. In order to prevent non-specific staining, the cells were reacted with the blocking solution at room temperature for 1 hour, and then the p62 antibody and target protein antibody diluted at a certain ratio were treated using the block solution, and then reacted at room temperature for 1 hour. […]

For another assay, the system named is PDE4. Kind of assay: target protein degradation by immunoblotting (Experimental Example 6). In kind it is cell-based, human. Particulars: HEK293T, 24 hours. The procedure: as §1, §2, §3, §4
[2] abbreviates: SH-SY5Y and HeLa cell lines treated.

T1 sequence (P17661 whole entry L385P): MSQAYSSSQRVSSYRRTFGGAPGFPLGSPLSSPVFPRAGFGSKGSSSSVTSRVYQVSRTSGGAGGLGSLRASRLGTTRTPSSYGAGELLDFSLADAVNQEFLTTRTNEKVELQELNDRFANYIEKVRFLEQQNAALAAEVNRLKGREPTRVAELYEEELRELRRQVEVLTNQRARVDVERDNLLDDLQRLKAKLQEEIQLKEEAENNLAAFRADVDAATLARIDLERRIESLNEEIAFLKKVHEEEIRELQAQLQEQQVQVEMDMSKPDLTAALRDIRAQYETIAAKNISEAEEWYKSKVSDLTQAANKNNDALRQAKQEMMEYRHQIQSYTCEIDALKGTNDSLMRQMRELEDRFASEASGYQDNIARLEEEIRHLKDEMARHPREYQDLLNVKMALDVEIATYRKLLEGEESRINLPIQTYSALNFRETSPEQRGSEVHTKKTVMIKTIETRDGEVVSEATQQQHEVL
T4 sequence (P40763 whole entry): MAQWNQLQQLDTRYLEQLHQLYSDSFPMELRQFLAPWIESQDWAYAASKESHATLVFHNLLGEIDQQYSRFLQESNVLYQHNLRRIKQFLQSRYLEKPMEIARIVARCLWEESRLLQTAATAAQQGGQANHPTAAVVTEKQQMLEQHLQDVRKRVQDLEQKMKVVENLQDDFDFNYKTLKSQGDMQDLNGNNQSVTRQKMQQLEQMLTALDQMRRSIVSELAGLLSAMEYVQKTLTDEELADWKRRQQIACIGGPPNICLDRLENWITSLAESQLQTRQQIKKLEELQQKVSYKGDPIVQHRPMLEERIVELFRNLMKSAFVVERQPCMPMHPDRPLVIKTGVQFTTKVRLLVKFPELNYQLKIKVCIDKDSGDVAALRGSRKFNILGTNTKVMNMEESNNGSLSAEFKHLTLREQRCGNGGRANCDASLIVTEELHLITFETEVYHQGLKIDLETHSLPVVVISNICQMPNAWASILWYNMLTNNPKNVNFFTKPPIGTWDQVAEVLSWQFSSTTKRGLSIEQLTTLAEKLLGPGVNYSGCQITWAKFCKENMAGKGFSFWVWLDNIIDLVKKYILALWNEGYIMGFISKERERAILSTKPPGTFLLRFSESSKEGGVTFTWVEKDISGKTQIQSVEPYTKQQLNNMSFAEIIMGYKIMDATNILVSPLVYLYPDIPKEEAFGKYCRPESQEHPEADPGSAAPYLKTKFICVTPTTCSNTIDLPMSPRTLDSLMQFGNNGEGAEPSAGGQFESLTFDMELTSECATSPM
T5 sequence (P40763 whole entry): as above

With `O=C(c1cc(-c2cc3c(cc2C(=O)N2Cc4ccccc4C[C@H]2CN2CCN(CCOCCOCCOCCOCCNCc4ccc(OCc5ccccc5)c(OCCc5ccccc5)c4)CC2)OCO3)n2c1CCCC2)N(c1ccccc1)c1ccc(O)cc1` [Example 25, (S)-3-(6-(3-((4-(1-(4-(benzyloxy)-3-phenethoxyphenyl)-5,8,11,14-tetraoxa-2-azahexadecan-16-yl)piperazin-1-yl)methyl)-1,2,3,4-tetrahydroisoquinoline-2-carbonyl)benzo[d][1,3]dioxol-5-yl)-N-(4-hydroxyphenyl)-N-phenyl-5,6,7,8-tetrahydroindolizine-1-carboxamide], the “degradation of target protein Tau (decrease in level vs Control)” value in the assay with Tau (setting [2]) is recorded as “can be degraded”. Further, at Desmin Mut(L385P), the “degradation of target protein Desmin Mut(L385P) (decrease in level vs Control)” value is reported as “can be degraded”. The “degradation of target protein α-synuclein(A53T) (decrease in level vs Control)” value at α-synuclein(A53T) (setting [2]) was “can be degraded”.

Take `CN(CCOCCOCCOCCNC[C@@H](O)COc1cccc(OCc2ccc(F)cc2)c1)c1ccc2nc3ccc(=[N+](C)C)cc-3sc2c1.O=C([O-])C(F)(F)F` [Example 33, (R)—N-(7-((15-(3-((4-fluorobenzyl)oxy)phenoxy)-14-hydroxy-3,6,9-trioxa-12-azapentadecyl) (methyl)amino)-3H-phenothiazin-3-ylidene)-N-methylmethanaminium 2,2,2-trifluoroacetate]: on p-53, the “degradation of target protein p-53 (decrease in level vs Control)” value was “can be degraded”.

With `CN(CCOCCOCCOCCNCc1ccc(OCc2ccccc2)c(OCc2ccccc2)c1)c1ccc2nc3ccc(=[N+](C)C)cc-3sc2c1` [Example 31, N-(7-((1-(3,4-bis(benzyloxy)phenyl)-5,8,11-trioxa-2-azatridecan-13-yl) (methyl)amino)-3H-phenothiazin-3-ylidene)-N-methylmethanaminium 2,2,2-trifluoroacetate], the “degradation of target protein Tau (decrease in level vs Control)” value with Tau (SH-SY5Y cell line) is “can be degraded”. The “degradation of target protein α-syn. Mut(A53T) (decrease in level vs Control)” value at α-synuclein(A53T) (SH-SY5Y cell line) was “can be degraded”.

With `Cc1sc2c(c1C)C(c1ccc(Cl)cc1)=N[C@@H](CC(=O)NCCOCCOCCNC[C@@H](O)COc1ccc(OCc3ccccc3)c(OCc3ccccc3)c1)c1nnc(C)n1-2` [Example 14, N-(2-(2-(2-(((R)-3-(3,4-bis(benzyloxy)phenoxy)-2-hydroxypropyl)amino)ethoxy)ethoxy)ethyl)-2-((S)-4-(4-chlorophenyl)-2,3,9-trimethyl-6H-thieno[3,2-f][1,2,4]triazolo[4,3-a][1,4]diazepin-6-yl)acetamide], in the assay with BRD2, the “degradation of target protein BRD2 (decrease in level vs Control)” value is reported as “can be degraded”. Besides, the “degradation of target protein BRD3 (decrease in level vs Control)” value in the assay on BRD3 was “can be degraded”. Moreover, the “degradation of target protein BRD4 (decrease in level vs Control)” value in the assay on BRD4 is reported as “can be degraded”.

With `CN(CCOCCOCCOCCNC[C@@H](O)COc1ccc(OCc2ccc(F)cc2)c(OCc2ccc(F)cc2)c1)c1ccc2nc3ccc(=[N+](C)C)cc-3sc2c1` [Example 32, (R)—N-(7-((15-(3,4-bis((4-fluorobenzyl)oxy)phenoxy)-14-hydroxy-3,6,9-trioxa-12-azapentadecyl) (methyl)amino)-3H-phenothiazin-3-ylidene)-N-methylmethanaminium 2,2,2-trifluoroacetate], the “degradation of target protein p-53 (decrease in level vs Control)” value on p-53 is recorded as “can be degraded”.

With `NC(=O)CC[C@H](NC(=O)[C@@H]1CC[C@@H]2CCN(C(=O)CCCOCCOCCOCCOCCNCc3ccc(OCc4ccccc4)c(OCc4ccccc4)c3)C[C@H](NC(=O)c3cc4cc(C(F)(F)P(=O)(O)O)ccc4[nH]3)C(=O)N21)C(=O)NC(c1ccccc1)c1ccccc1` [Example 22, ((2-(((5S,8S,10aR)-8-(((S)-5-amino-1-(benzhydrylamino)-1,5-dioxopentan-2-yl)carbamoyl)-3-(1-(3,4-bis(benzyloxy)phenyl)-5,8,11,14-tetraoxa-2-azaoctadecan-18-oyl)-6-oxodecahydropyrrolo[1,2-a][1,5]diazocin-5-yl)carbamoyl)-1H-indol-5-yl)difluoromethyl)phosphonic acid], the “degradation of target protein Cyclin D1 (decrease in level vs Control)” value in the assay with Cyclin D1 is listed as “can be degraded”. Further, the “degradation of target protein STAT3 (decrease in level vs Control)” value on STAT3 is recorded as “can be degraded”. Also, at p-STAT3, the “degradation of target protein p-STAT3 (decrease in level vs Control)” value is on record as “can be degraded”.

In the case of `O=C(CCCc1ccccc1)NCCOCCOCCOCCNC[C@@H](O)COc1cccc(OCc2ccc(F)cc2)c1` [Example 30, (R)—N-(15-(3-((4-fluorobenzyl)oxy)phenoxy)-14-hydroxy-3,6,9-trioxa-12-azapentadecyl)-4-phenylbutanamide], the “intracellular puncta formation of p62 proteins and of target proteins, and local co-existence thereof” value in assay [1] is “increase gradually”. Also, the “degradation of target protein Tau (decrease in level vs Control)” value in the assay on Tau (SH-SY5Y cell line) is reported as “can be degraded”.

With `COc1ccc([C@]2(C#N)CC[C@@H](C(=O)NCCOCCOCCNCc3ccc(OCc4ccccc4)c(OCc4ccccc4)c3)CC2)cc1OC1CCCC1` [Example 15, (1s,4s)-N-(2-(2-(2-((3,4-bis(benzyloxy)benzyl)amino)ethoxy)ethoxy)ethyl)-4-cyano-4-(3-(cyclopentyloxy)-4-methoxyphenyl)cyclohexane-1-carboxamide], the “degradation of target protein PDE4 (decrease in level vs Control)” value with PDE4 is “can be degraded”.
